Data from patent US10030006B2, “Coumarin based Hsp90 inhibitors with urea and ether substituents” (University of Kansas, priority 2013, dated 2018).
Read-outs that look alike come from different tables or passages of the source.

Assays:
Format in all cases: cell-based
[1] = test system: SKBr3 (estrogen receptor negative, Her2 over-expressing breast cancer cells); experiment: Anti-proliferation assay (MTS/PMS, 72 h), SKBr3; conditions: Breast Cancer, read-out: IC50 SKBr3
Description: (§1) Cells were maintained in a 1:1 mixture of Advanced DMEM/F12 (Gibco) supplemented with non-essential amino acids, L-glutamine (2 mM), streptomycin (500 μg/mL), penicillin (100 units/mL), and 10% FBS. Cells were grown to confluence in a humidified atmosphere (37° C., 5% CO2), seeded (2000/well, 100 μL) in 96-well plates, and allowed to attach overnight. Compound at varying concentrations in DMSO (1% DMSO final concentration) was added, and cells were returned to the incubator for 72 h. At 72 h, the number of viable cells was determined using an MTS/PMS cell proliferation kit (Promega) per the manufacturer's instructions. Cells incubated in 1% DMSO were used at 100% proliferation, and values were adjusted accordingly. IC50 values were calculated from separate experiments performed in triplicate using GraphPad Prism.
(§2) The anti-proliferative activity of these compounds is evaluated against two breast cancer cell lines, SKBr3 (estrogen receptor negative, Her2 over-expressing breast cancer cells) and MCF-7 (estrogen receptor positive breast cancer cells).

[2] = test system: MCF-7 (estrogen receptor positive breast cancer cells); experiment: Anti-proliferation assay (MTS/PMS, 72 h), MCF-7; conditions: Breast Cancer, read-out: IC50 MCF-3
Description: as §1, §2

[3] = test system: HCT-116; experiment: Anti-proliferation assay, HCT-116
Description: as §1

[4] = test system: PC-3; experiment: Anti-proliferation assay, PC-3; conditions: Prostate Cancer
Description: as §1

[5] = test system: A-549; experiment: Anti-proliferation assay, A-549
Description: as §1

[6] = test system: MDA1986; experiment: Anti-proliferation assay, MDA1986; conditions: HSNCC
Description: as §1

[7] = test system: JMAR; experiment: Anti-proliferation assay, JMAR; conditions: HSNCC
Description: as §1

[8] = test system: MDAMB231; experiment: Anti-proliferation assay, MDAMB231; conditions: Tri-Neg
Description: as §1

[9] = test system: DRO81-1; experiment: Anti-proliferation assay, DRO81-1; conditions: Thyroid
Description: as §1

[10] = test system: MRC5; experiment: Anti-proliferation assay, MRC5 (normal); conditions: Homo sapiens, MRC5, Table 6, substituted phenyl ureas
Description: as §1

[11] = test system: HMLE; experiment: Anti-proliferation assay, HMLE (normal); conditions: HMLE, Table 6, substituted phenyl ureas
Description: as §1

[12] = Homo sapiens, SK-BR-3, Table 6, substituted phenyl ureas
[13] = Homo sapiens, MCF7, Table 6, substituted phenyl ureas
[14] = Homo sapiens, HCT-116, Table 6, substituted phenyl ureas
[15] = Homo sapiens, PC-3, Table 6, substituted phenyl ureas
[16] = Homo sapiens, A549, Table 6, substituted phenyl ureas
[17] = MDA1986, Table 6, substituted phenyl ureas
[18] = JMAR, Table 6, substituted phenyl ureas
[19] = Homo sapiens, MDA-MB-231, Table 6, substituted phenyl ureas
[20] = Table 6, substituted phenyl ureas

Structure (SMILES): Cc1c(OC2CCN(C)CC2)ccc2cc(NC(=O)Nc3ccc(C(F)(F)F)cc3)c(=O)oc12 [p-CF3, 1-(8-methyl-7-((1-methylpiperidin-4-yl)oxy)-2-oxo-2H-chromen-3-yl)-3-(4-(trifluoromethyl)phenyl)urea]
- IC50 [1, 12]: 350 nM
- IC50 [2, 13]: 470 nM
- IC50 [3, 14]: 800 nM
- IC50 [4, 15]: 60 nM
- IC50 [5, 16]: 130 nM
- IC50 [6, 17]: 900 nM
- IC50 [7, 18]: 3600 nM
- IC50 [8, 19]: 430 nM
- IC50 [9, 20]: 640 nM
- IC50 [10]: 3100 nM
- IC50 [11]: 15500 nM

Structure (SMILES): Cc1c(OC2CCN(C)CC2)ccc2cc(NC(=O)Nc3ccc([N+](=O)[O-])cc3)c(=O)oc12 [p-NO2, 1-(8-methyl-7-((1-methylpiperidin-4-yl)oxy)-2-oxo-2H-chromen-3-yl)-3-(4-nitrophenyl)urea]
- IC50 [1, 12]: 580 nM
- IC50 [2, 13]: 4240 nM
- IC50 [3, 14]: 2830 nM
- IC50 [4, 15]: 1060 nM
- IC50 [5, 16]: 950 nM
- IC50 [6, 17]: 6600 nM
- IC50 [7, 18]: 7300 nM
- IC50 [8, 19]: 2100 nM
- IC50 [9, 20]: 11500 nM
- IC50 [10]: > 25000 nM
- IC50 [11]: > 25000 nM

Structure (SMILES): Cc1c(OC2CCN(C)CC2)ccc2cc(NC(=O)Nc3ccc(C(C)(C)C)cc3)c(=O)oc12 [p-C(CH3)3, 1-(4-(tert-butyl)phenyl)-3-(8-methyl-7-((1-methylpiperidin-4-yl)oxy)-2-oxo-2H-chromen-3-yl)urea]
- IC50 [1, 12]: 930 nM
- IC50 [2, 13]: 960 nM
- IC50 [3, 14]: 210 nM
- IC50 [4, 15]: 140 nM
- IC50 [5, 16]: 92 nM
- IC50 [6, 17]: 570 nM
- IC50 [7, 18]: 490 nM
- IC50 [8, 19]: 500 nM
- IC50 [9, 20]: 710 nM
- IC50 [10]: 1800 nM
- IC50 [11]: 14500 nM

Structure (SMILES): Cc1c(OC2CCN(C)CC2)ccc2cc(NC(=O)NC3CCCC3)c(=O)oc12 [drawing 154]
- IC50 ([1]; Table 9, non-aryl ureas): 2390 ± 350 nM
- IC50 ([2]; Table 9, non-aryl ureas): 3830 ± 330 nM
- IC50 ([3]; Table 9, non-aryl ureas): 7870 ± 7970 nM
- IC50 ([4]; Table 9, non-aryl ureas): 2160 ± 1170 nM
- IC50 ([5]; Table 9, non-aryl ureas): 1240 ± 940 nM
- IC50 ([6]; Table 9, non-aryl ureas): > 25000 nM
- IC50 ([7]; Table 9, non-aryl ureas): > 25000 nM
- IC50 ([8]; Table 9, non-aryl ureas): 650 nM
- IC50 ([9]; Table 9, non-aryl ureas): 8800 nM

Structure (SMILES): Cc1c(OC2CCN(C)CC2)ccc2cc(NC(=O)Nc3ccc(Cl)c(Cl)c3)c(=O)oc12 [3,4-dichloro, 1-(3,4-dichlorophenyl)-3-(8-methyl-7-((1-methylpiperidin-4-yl)oxy)-2-oxo-2H-chromen-3-yl)urea]
- IC50 [1, 12]: 640 nM
- IC50 [2, 13]: 1780 nM
- IC50 [3, 14]: 17000 nM
- IC50 [4, 15]: 2040 nM
- IC50 [5, 16]: 1820 nM
- IC50 [6, 17]: 2600 nM
- IC50 [7, 18]: 6700 nM
- IC50 [8, 19]: 2900 nM
- IC50 [9, 20]: 13200 nM
- IC50 [10]: 2100 nM
- IC50 [11]: 1500 nM

Structure (SMILES): Cc1ccc(NC(=O)Nc2cc3ccc(OC4CCN(C)CC4)c(C)c3oc2=O)cc1 [p-CH3, 1-(8-methyl-7-((1-methylpiperidin-4-yl)oxy)-2-oxo-2H-chromen-3-yl)-3-(p-tolyl)urea]
- IC50 [1, 12]: 270 nM
- IC50 [2, 13]: 290 nM
- IC50 [3, 14]: 59 nM
- IC50 [4, 15]: 810 nM
- IC50 [5, 16]: 17 nM
- IC50 [6, 17]: 3200 nM
- IC50 [7, 18]: 3500 nM
- IC50 [8, 19]: 910 nM
- IC50 [9, 20]: 16300 nM
- IC50 [10]: 6600 nM
- IC50 [11]: 3300 nM

Structure (SMILES): Cc1ccc(NC(=O)Nc2cc3ccc(OC4CCN(C)CC4)c(C)c3oc2=O)c(C)c1 [2,4-dimethyl, 1-(2,4-dimethylphenyl)-3-(8-methyl-7-((1-methylpiperidin-4-yl)oxy)-2-oxo-2H-chromen-3-yl)urea]
- IC50 [1, 12]: 3790 nM
- IC50 [2, 13]: 1110 nM
- IC50 [3, 14]: 770 nM
- IC50 [4, 15]: 270 nM
- IC50 [5, 16]: 430 nM
- IC50 [6, 17]: 1900 nM
- IC50 [7, 18]: 1100 nM
- IC50 [8, 19]: 2600 nM
- IC50 [9, 20]: 2300 nM
- IC50 [10]: 3600 nM
- IC50 [11]: > 25000 nM

Structure (SMILES): Cc1c(OC2CCN(C)CC2)ccc2cc(NC(=O)Nc3ccc(C(C)C)cc3)c(=O)oc12 [p-CH(CH3)2, 1-(4-isopropylphenyl)-3-(8-methyl-7-((1-methylpiperidin-4-yl)oxy)-2-oxo-2H-chromen-3-yl)urea]
- IC50 [1, 12]: 670 nM
- IC50 [2, 13]: 820 nM
- IC50 [3, 14]: 1060 nM
- IC50 [4, 15]: 130 nM
- IC50 [5, 16]: 160 nM
- IC50 [6, 17]: 1110 nM
- IC50 [7, 18]: 880 nM
- IC50 [8, 19]: 610 nM
- IC50 [9, 20]: 300 nM
- IC50 [10]: 1900 nM
- IC50 [11]: 6400 nM

Structure (SMILES): Cc1c(OC2CCN(C)CC2)ccc2cc(NC(=O)Nc3ccc(Cl)cc3)c(=O)oc12 [p-Cl, 1-(4-chlorophenyl)-3-(8-methyl-7-((1-methylpiperidin-4-yl)oxy)-2-oxo-2H-chromen-3-yl)urea]
- IC50 [1, 12]: 170 nM
- IC50 [2, 13]: 360 nM
- IC50 [3, 14]: 420 nM
- IC50 [4, 15]: 2300 nM
- IC50 [5, 16]: 160 nM
- IC50 [6, 17]: > 25000 nM
- IC50 [7, 18]: 6100 nM
- IC50 [8, 19]: > 25000 nM
- IC50 [9, 20]: 15800 nM
- IC50 [10]: > 25000 nM
- IC50 [11]: > 25000 nM

Structure (SMILES): Cc1c(OC2CCN(C)CC2)ccc2cc(NC(=O)Nc3cc(Cl)cc(Cl)c3)c(=O)oc12 [3,5-dichloro, 1-(3,5-dichlorophenyl)-3-(8-methyl-7-((1-methylpiperidin-4-yl)oxy)-2-oxo-2H-chromen-3-yl)urea]
- IC50 [1, 12]: 510 nM
- IC50 [2, 13]: 490 nM
- IC50 [3, 14]: 1210 nM
- IC50 [4, 15]: 160 nM
- IC50 [5, 16]: 200 nM
- IC50 [6, 17]: 7500 nM
- IC50 [7, 18]: 6200 nM
- IC50 [8, 19]: 3600 nM
- IC50 [9, 20]: 770 nM
- IC50 [10]: > 25000 nM
- IC50 [11]: > 25000 nM

Structure (SMILES): Cc1c(OC2CCN(C)CC2)ccc2cc(NC(=O)NC34CC5CC(CC(C5)C3)C4)c(=O)oc12 [drawing 156]
- IC50 ([3]; Table 9, non-aryl ureas): 82 ± 35 nM
- IC50 ([4]; Table 9, non-aryl ureas): 19 ± 3 nM
- IC50 ([5]; Table 9, non-aryl ureas): 10 ± 10 nM
- IC50 ([6]; Table 9, non-aryl ureas): 5900 nM
- IC50 ([7]; Table 9, non-aryl ureas): 6200 nM
- IC50 ([8]; Table 9, non-aryl ureas): 3000 nM
- IC50 ([9]; Table 9, non-aryl ureas): 18700 nM

Structure (SMILES): Cc1c(OC2CCN(C)CC2)ccc2cc(NC(=O)Nc3cccc(Oc4ccccc4)c3)c(=O)oc12 [m-phenoxyl, 1-(8-methyl-7-((1-methylpiperidin-4-yl)oxy)-2-oxo-2H-chromen-3-yl)-3-(3-phenoxyphenyl)urea]
- IC50 [1, 12]: 190 nM
- IC50 [2, 13]: 280 nM
- IC50 [4, 15]: 2160 nM
- IC50 [5, 16]: 1020 nM
- IC50 [6, 17]: 570 nM
- IC50 [7, 18]: 2400 nM
- IC50 [8, 19]: 280 nM
- IC50 [9, 20]: 3100 nM
- IC50 [10]: 2200 nM
- IC50 [11]: 5200 nM

Structure (SMILES): Cc1c(OC2CCN(C)CC2)ccc2cc(NC(=O)NC3CCCCC3)c(=O)oc12 [drawing 155]
- IC50 ([1]; Table 9, non-aryl ureas): 3830 ± 330 nM
- IC50 ([2]; Table 9, non-aryl ureas): 3840 ± 310 nM
- IC50 ([3]; Table 9, non-aryl ureas): 9210 ± 6540 nM
- IC50 ([4]; Table 9, non-aryl ureas): 1670 nM
- IC50 ([5]; Table 9, non-aryl ureas): > 100000 nM
- IC50 ([6]; Table 9, non-aryl ureas): > 25000 nM
- IC50 ([7]; Table 9, non-aryl ureas): > 25000 nM
- IC50 ([8]; Table 9, non-aryl ureas): > 25000 nM
- IC50 ([9]; Table 9, non-aryl ureas): > 25000 nM
